Reference: US20240166645A1, “PYRIDOPYRIMIDINONE DERIVATIVE, PREPARATION METHOD THEREFOR, AND USE THEREOF” (Wuhan Humanwell Innovative Drug Research and Development …, priority 2021, published 2024)

Legend:
KRAS G12C-SOS1 = KRAS G12C-SOS1 (Homo sapiens (Human), UniProt Q07889); test: Inhibition test of compounds on KRAS G12C::SOS1 binding; details: GST-KRAS G12C, His-SOS1
Procedure: The compound to be tested was prepared into a 10 mM stock solution with DMSO, and the compound was serially diluted using 1× test buffer. 0.1 μL of the compound solution with different concentrations was transferred to a 384-well plate. […] 5 μL of His-SOS1 was added to the 384-well plate, centrifuged at 1000 rpm for 1 min, and incubated at room temperature for 15 min.
After incubation, 10 μL of a mixed solution of anti-6his-Tb monoclonal antibody (Cisbio, Cat. No. 61HI2TLA) and anti-GST-XL665 monoclonal antibody (Cisbio, Cat. No. 61GSTXLA) was added to the test well, centrifuged at 1000 rpm for 1 min, and incubated at room temperature for 1 h.
After incubation, the fluorescence signal ratios at 665 nm and 615 nm were read on a multifunctional microplate reader (Perkin Elmer, Envision 2104), and the IC50 values were calculated using Graphpad 5 software.

[1] = Human liver microsome stability test; assay type: in vitro ADME; details: human liver microsomes; for Remaining percentage (%) of compound after incubation for 30 min: 37° C.; for half-life at 1 µM: human
Procedure: The human liver microsome stability test was performed by incubating the compound and human liver microsomes in vitro. First, the compound to be tested was prepared into a 10 mM stock solution in DMSO solvent, and then the compound was diluted to 0.5 mM with acetonitrile. Human liver microsomes (Corning) were diluted with PBS into a microsome/buffer solution, and the solution was used to dilute 0.5 mM compound into a working solution, in which the concentration of the compound was 1.5 μM, and the concentration of human liver microsomes was 0.75 mg/mL. A deep-well plate was taken, 30 μL of the working solution was added per well, and then 15 μL of pre-heated 6 mM NADPH solution was added thereto to initiate a reaction, and the reaction was incubated at 37° C. At 0, 5, 15, 30 and 45 min of the incubation, 135 μL of acetonitrile was added to the corresponding wells to terminate the reaction. After the reaction was terminated with acetonitrile at the last time point of 45 min, the deep-well plate was vortexed and vibrated for 10 min (600 rpm/min), and then centrifuged for 15 min. After centrifugation, the supernatant was collected, and added with purified water in a ratio of 1:1 to perform LC-MS/MS detection. A ratio of a peak area of compound to a peak area of internal standard at each time point was obtained, and the peak area ratios of the compound at 5, 15, 30 and 45 min were compared with the peak area ratio at 0 min to calculate the remaining percentage of the compound at each time point. T1/2 was calculated by using GraphPad 5 software.

[2] = Plasma protein binding by equilibrium dialysis, human plasma; assay type: in vitro ADME; details: 37° C., read-out: Free fraction in plasma, Human (%)
Procedure: Plasma protein binding rate of compounds was detected by equilibrium dialysis (HTDialysis, HTD 96b). The compound was prepared into a […] stock solution with DMSO, and then 25-fold diluted with 0.05 M sodium phosphate buffer as a working solution. A blank 96-well plate was taken and preloaded with 380 μL of plasma per well. The plasma was then added with the working solution at 20 μL/well and mixed well, with the compound at a final concentration of 1 μM, containing 0.2% DMSO per well.
100 μL of 0.05 M sodium phosphate buffer was added to the reception-side of each dialysis chamber (HTD 96b), and then 100 μL of plasma containing the compound was added to the supply-side. The dialysis chamber was covered with a plastic lid, shaken and incubated at 37° C. for 5 h.
After incubation, 25 μL of samples were taken from each of the supply-side and the reception-side of the dialysis chamber and placed in the blank 96-well plate. An equal volume of plasma was added to each of the supply-side samples while an equal volume of 0.05 M sodium phosphate buffer was added to each of the reception-side samples and mixed well. The 96-well plate was added with an acetonitrile solution containing internal standard at 200 μL per well, vortexed and shaken at 600 rpm for 10 min, and centrifuged at 5594 g for 15 min (Thermo Multifuge×3R). 50 μL of the supernatant was then transferred to a new 96-well plate, and the samples were mixed with 50 μL of ultra-pure water for LC-MS/MS analysis.
Plasma protein binding rate and free fraction were calculated using the following formulas: % binding rate=100×([supply-side concentration]5h−[reception-side concentration]5h)/[supply-side concentration]5h. % free fraction=100−% binding rate.

[3] = Pharmacokinetic test in mice; assay type: in vivo; details: mouse, plasma; male ICR mice, oral gavage, 10 mg/kg
Procedure: Male ICR mice (20 to 25 g) were used and fasted overnight. Three mice were taken and orally administered by gavage (10 mg/kg). Blood was collected before the administration, and at 15 min, 30 min, 1 h, 2 h, 4 h, 8 h and 24 h after the administration. 6,800 g of the blood samples were centrifuged at 2 to 8° C. for 6 min, and plasma was collected and stored at −80° C. The plasma at each time point was taken and added with an acetonitrile solution containing internal standard in 3 to 5 times the amount, vortexed and mixed for 1 min, and centrifuged at 13,000 rpm/min at 4° C. for 10 min. The supernatant was collected, added with water in 3 times the amount, and mixed. An appropriate amount of the mixture was taken for LC-MS/MS analysis. The main pharmacokinetic parameters were analyzed using WinNonlin 7.0 software with non-compartmental model.

Sequence of KRAS G12C-SOS1 (Q07889 whole entry, stated change not applied): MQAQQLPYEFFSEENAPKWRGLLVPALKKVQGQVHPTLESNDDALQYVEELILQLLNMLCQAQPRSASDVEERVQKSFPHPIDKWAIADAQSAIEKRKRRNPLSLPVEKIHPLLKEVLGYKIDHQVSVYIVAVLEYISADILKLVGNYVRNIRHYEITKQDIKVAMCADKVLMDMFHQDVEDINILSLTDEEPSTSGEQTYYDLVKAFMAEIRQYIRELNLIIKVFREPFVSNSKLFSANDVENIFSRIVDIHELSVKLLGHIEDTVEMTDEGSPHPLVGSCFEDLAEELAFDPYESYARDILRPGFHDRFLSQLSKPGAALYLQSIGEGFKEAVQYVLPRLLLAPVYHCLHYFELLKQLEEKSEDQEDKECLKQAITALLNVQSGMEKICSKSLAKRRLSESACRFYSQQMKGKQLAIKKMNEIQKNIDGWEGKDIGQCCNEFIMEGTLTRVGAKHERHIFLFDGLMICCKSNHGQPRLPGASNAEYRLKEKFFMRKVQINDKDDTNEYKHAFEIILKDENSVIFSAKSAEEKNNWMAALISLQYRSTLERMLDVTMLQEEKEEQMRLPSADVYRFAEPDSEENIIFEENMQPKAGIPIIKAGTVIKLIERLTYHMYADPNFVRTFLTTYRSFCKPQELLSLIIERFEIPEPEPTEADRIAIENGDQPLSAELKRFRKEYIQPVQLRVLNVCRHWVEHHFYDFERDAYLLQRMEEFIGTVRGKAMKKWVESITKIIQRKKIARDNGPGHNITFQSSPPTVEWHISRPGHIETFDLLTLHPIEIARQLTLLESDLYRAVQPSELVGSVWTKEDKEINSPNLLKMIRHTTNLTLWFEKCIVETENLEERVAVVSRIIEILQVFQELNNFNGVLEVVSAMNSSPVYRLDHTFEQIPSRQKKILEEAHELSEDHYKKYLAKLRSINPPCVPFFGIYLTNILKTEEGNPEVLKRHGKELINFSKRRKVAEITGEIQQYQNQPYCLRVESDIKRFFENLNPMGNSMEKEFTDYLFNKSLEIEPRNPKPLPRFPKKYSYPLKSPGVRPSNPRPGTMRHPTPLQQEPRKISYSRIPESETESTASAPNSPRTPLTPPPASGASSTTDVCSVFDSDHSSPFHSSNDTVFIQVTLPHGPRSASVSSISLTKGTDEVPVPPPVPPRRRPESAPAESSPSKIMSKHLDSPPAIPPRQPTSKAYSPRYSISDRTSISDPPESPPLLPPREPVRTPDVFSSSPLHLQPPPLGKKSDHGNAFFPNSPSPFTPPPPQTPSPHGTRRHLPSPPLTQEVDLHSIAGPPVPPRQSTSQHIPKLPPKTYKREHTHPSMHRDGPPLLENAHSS

Question: With `Cc1nc(N[C@H](C)c2cccc(S(=O)(=O)C(F)F)c2C)c2cn(C3(CF)CC3)c(=O)cc2n1` [Compound I-1, (R)-4-((1-(3-((difluoromethyl)sulfonyl)-2-methylphenyl)ethyl)amino)-6-(1-(fluoromethyl)cyclopropyl)-2-methylpyrido[4,3-d]pyrimidin-7(6H)-one] as the compound, how does the IC50 (KRAS G12C-SOS1) read?
Answer: The IC50 was 6.87 nM.

Question: And the “Remaining percentage (%) of compound after incubation for 30 min” value [1]?
Answer: The value was 76.4%.

Question: And the half-life at 1 µM [1]?
Answer: The half-life at 1 µM was 87.5 min.

Question: What about the fraction unbound at 5 h, 1 µM [2] of the same compound?
Answer: The fraction unbound at 5 h, 1 µM was 0.042.

Question: With `Cc1nc(N[C@H](C)c2cccc(S(=O)(=O)C(F)(F)F)c2F)c2cn(C3(CF)CC3)c(=O)cc2n1` [Compound I-2, (R)-4-((1-(2-fluoro-3-((trifluoromethyl)sulfonyl)phenyl)ethyl)amino)-6-(1-(fluoromethyl)cyclopropyl)-2-methylpyrido[4,3-d]pyrimidin-7(6H)-one] as the compound, how does the IC50 (KRAS G12C-SOS1) read?
Answer: Its IC50 is 7.73 nM.

Question: And the “Remaining percentage (%) of compound after incubation for 30 min” value [1]?
Answer: The value was 96.5%.

Question: And the half-life at 1 µM [1]?
Answer: The half-life at 1 µM was 475 min.

Question: What about the fraction unbound at 5 h, 1 µM [2] of the same compound?
Answer: The fraction unbound at 5 h, 1 µM was 0.015.

Question: And the AUC(0-t) [3]?
Answer: Its AUC(0-t) is 517 ng·h/mL.

Question: What about the Cmax [3] of the same compound?
Answer: Its Cmax is 256 ng/mL.

Question: What about the Tmax [3] of the same compound?
Answer: Its Tmax is 30 min.

Question: What about the half-life [3] of the same compound?
Answer: Its half-life is 59.4 min.
